Here are results for three compounds from US20230322659A1, “STROBILURIN TYPE COMPOUNDS AND THEIR USE FOR COMBATING PHYTOPATHOGENIC FUNGI” (priority 2020, published 2023).

Molecules are shown by their SMILES.

For assay [1], the system named is Phakopsora pachyrhizi (strain with amino acid substitution F129L in the mitochondrial cytochrome b protein). The assay is described as follows: Use Example 2: protective control of soybean rust on soybeans (PHAKPA P6), greenhouse. The assay is classed as in vivo. As to conditions: soybean seedlings inoculated six days after treatment, % diseased leaf area; for % PHAKPA Disease level P6 at 4 ppm: 4 ppm spray; for % PHAKPA Disease level P6 at 16 ppm: 16 ppm spray. The protocol:
(§1) The compound was dissolved in a mixture of acetone and/or dimethylsulfoxide and the wetting agent/emulsifier Wettol, which is based on ethoxylated alkylphenoles, in a ratio (volume) solvent-emulsifier of 99 to 1 to give a total volume of 5 ml. Subsequently, water was added to total volume of 100 ml. This stock solution was then diluted with the described solvent-emulsifier-water mixture to the final concentration given in the table below.
(§2) Leaves of potted soybean seedlings were sprayed to run-off with the previously described spray solution, containing the concentration of active ingredient as described below. The plants were allowed to air-dry. The trial plants were cultivated for six days in a greenhouse chamber at 23-27° C. and a relative humidity between 60 and 80%. Then the plants were inoculated with spores of Phakopsora pachyrhizi. The strain used contains the amino acid substitution F129L in the mitochondrial cytochrome b protein conferring resistance to Qo inhibitors. To ensure the success the artificial inoculation, the plants were transferred to a humid chamber with a relative humidity of about 95% and 23 to 27° C. for 24 hr. The trial plants were cultivated for up to 14 days in a greenhouse chamber at 23 to 27° C. and a relative humidity between 60 and 80%. The extent of fungal attack on the leaves was visually assessed as % diseased leaf area, the disease level of untreated controls was usually higher than 85%.
(§3) All test results below are given for the control of phytopathogenic fungi containing the amino acid substitution F129L in the mitochondrial cytochrome b protein conferring resistance to Qo inhibitors.

Assay [2] shares this test system. As to the kind of experiment: Use Example 1: protective control of soybean rust on soybeans (PHAKPA P2), greenhouse. The assay is classed as in vivo. As to conditions: soybean seedlings inoculated 2 days after treatment, % diseased leaf area; for % PHAKPA Disease level P2 at 4 ppm: 4 ppm spray; for % PHAKPA Disease level P2 at 16 ppm: 16 ppm spray. The protocol:
as §1
as §2, with “active ingredient or their mixture as described” for “active ingredient as described”, “cultivated for 2 days in” for “cultivated for six days in”, “95% and 20 to 24°” for “95% and 23 to 27°”, “20 to 24° C. for” for “23 to 27° C. for”
as §3

As for `CO/N=C(/C(=O)OC)c1cccc(C)c1CO/N=C/c1ccccc1` [Compound 1], in assay [1], the “% PHAKPA Disease level P6 at 4 ppm” value was 90% and the “% PHAKPA Disease level P6 at 16 ppm” value is 83%. Besides, in assay [2], the “% PHAKPA Disease level P2 at 4 ppm” value was determined as 100% and the “% PHAKPA Disease level P2 at 16 ppm” value is 96%.
Taken in the same sequence, the figures for `CNC(=O)/C(=N/OC)c1cccc(C)c1CO/N=C/c1ccccc1` [Compound 2] were 63%, 15%, 50% and 2%.
As to `CNC(=O)/C(=N/OC)c1cccc(C)c1CO/N=C/c1ccccc1C(F)(F)F` [Compound 3], in assay [1], the “% PHAKPA Disease level P6 at 4 ppm” value came to 83% and the “% PHAKPA Disease level P6 at 16 ppm” value is 21%. Further, in assay [2], the “% PHAKPA Disease level P2 at 4 ppm” value was 36% and the “% PHAKPA Disease level P2 at 16 ppm” value amounted to 2%.
